Structures can show the parent of a compound that is named as a salt.
How the values were obtained:
[1] = tested on: GABA uptake from the synaptic cleft into presynaptic nerve terminals and glial cells; details: background statement; cited from earlier work
[2] = background statement; cited from earlier work
[^3 H]-GABA uptake = In vitro inhibition of [^3 H]-GABA uptake in rat cortical tissue; type: biochemical, Male wistar rat; details: rat cortical tissue homogenate, pH 7.5, 60 minutes at 30° C.
Procedure: Values for in vitro inhibition of [^3 H]-GABA uptake for the invention compounds were assessed essentially by the method of Fjalland (Acta Pharmacol. Toxicol. 1978, 42, 73-76). Male wistar rat cortical tissue was gently homogenized by hand using a glass/PTFE homogenizer in 10 volumes of 0.32M sucrose. Incubation was performed in a 40 mM tris HCl buffer (pH 7.5 at 30° C.) containing […], 4 mM MgSO4, […] and 10 mM glucose, for 60 minutes at 30° C. Values for inhibition of GABA uptake for some representative compounds are recorded in Table I.

GABA uptake = details: oral; Yunger, L. M. et al., 1984; cited from earlier work

Molecule	IC50 ([^3 H]-GABA uptake)	orally active inhibitors of GABA uptake (GABA uptake)	other results
O=C(O)C1CCCNC1 (centres unmarked) [3-piperidinecarboxylic acid]	–	–	inhibitor of GABA uptake [1]: well-known and potent inhibitor of GABA uptake; cross the blood-brain barrier [2]: unable to cross the blood-brain barrier
O=C(O)[C@@H]1CCCN(CCON=C2CCCCC2c2ccccc2)C1 (stereo partly drawn) [Example 1, (R)-1-(2-(((2-Phenylcyclohexylidene)amino)oxy)ethyl)-3-piperidinecarboxylicacid hydrochloride]	332 nM	–	–
O=C(O)[C@@H]1CCCN(CCON=C2CCCC=C2c2ccccc2)C1 [Example 2, (R)-1-(2-(((2-Phenylcyclohex-2-enylidene)amino)oxy)ethyl)-3-piperidinecarboxylic acid hydrochloride]	417 nM	–	–
O=C(O)[C@@H]1CCCN(CCON=C2c3ccccc3CCC2c2ccccc2)C1 (stereo partly drawn) [Example 4, (R)-1-(2-(((2-Phenyl-1,2,3,4-tetrahydro-1-naphthylidene)amino)oxy)ethyl)-3-piperidinecarboxylic acid hydrochloride]	819 nM	–	–
O=C(O)[C@@H]1CCCN(CCON=C2CC(c3ccccc3)c3ccccc32)C1 (stereo partly drawn) [Example 5, (R)-1-(2-(((3-Phenyl-1-indanylidene)amino)oxy)ethyl)-3-piperidinecarboxylicacid hydrochloride]	1380 nM	–	–
O=C(O)C1CCCN(CCC=C(c2ccccc2)c2ccccc2)C1 (centres unmarked) [SK&F 89976A, N-(4,4-diphenyl-3-buten-1-yl)nipecotic acid]	–	orally active inhibitors of GABA uptake	–
O=C(O)C1=CCCN(CCC=C(c2ccccc2)c2ccccc2)C1 [SK&F 100330A, N-(4,4-diphenyl-3-buten-1-yl)guvacine]	–	orally active inhibitors of GABA uptake	–
O=C(O)CC1CCN(CCC=C(c2ccccc2)c2ccccc2)C1 (stereo not drawn) [SK&F 100561, N-(4,4-diphenyl-3-buten-1-yl)-homo-β-proline]	–	orally active inhibitors of GABA uptake	–
O=C(O)C1CCCN(CCC=C(c2ccccc2)c2cccs2)C1 (centres unmarked) [SK&F 100604J, N-(4-phenyl-4-(2-thienyl)-3-buten-1-yl)nipecotic acid]	–	orally active inhibitors of GABA uptake	–
(R)-1-(2-(((2-(Benzylidene)cyclohexylidene)amino)oxy)ethyl)-3-piperidinecarboxylic acid hydrochloride [Example 3]	9500 nM	–	–

From patent publication US5639766A, “N-substituted azaheterocyclic carboxylic acids and esters thereof” (Novo Nordisk A/S, priority 1993, dated 1997)
